In ChEMBL document CHEMBL4138121, “Selective photocytotoxicity of anthrols on cancer stem-like cells: The effect of quinone methides or reactive oxygen species” (Eur J Med Chem, 2017):
The source made the active and inactive calls. No cut-off for these calls is given here.

Tests used:
[1] = tested on: MCF7; assay: Photocytotoxicity against human MCF7 cells assessed as growth inhibition irradiated at 420 nm at 4, 24, 48 hrs post compound addition for 5 mins measured after 72 hrs by MTT assay; assay type: functional, cell-based; settings: MCF7, light or radiation study
[2] = tested on: SUM-159-PT; assay: Induction of reactive oxygen species generation in human SUM159 cells at 1 to 10 uM irradiated at 420 nm for 5 mins measured after 2 hrs by H2DCF-DA dye-based FACS analysis; assay type: functional, cell-based
[3] = tested on: HMLE; assay: Cytotoxicity against HMLE-shEcad cells at 10 uM irradiated at 420 nm at 4 hrs post compound addition for 5 mins measured after 48 hrs by propidium iodide staining-based flow cytometric method; assay type: functional, cell-based; settings: Homo sapiens
[4] = Drug uptake in intracellular membranes of HMLE-shGFP cells at 5 uM irradiated at 420 nm for 5 mins measured after 2 to 3 hrs by confocal microscopic method; assay type: ADME, cell membranes, Intracellular membrane; settings: human
[5] = Cell cycle arrest in HMLE-shGFP cells assessed as accumulation at S phase at 1 to 10 uM irradiated at 420 nm at 4 hrs post compound addition for 5 mins measured after 24 to 48 hrs by propidium iodide staining-based flow cytometric method; settings: human
[6] = tested on: MCF7; assay: Induction of reactive oxygen species generation in human MCF7 cells at 1 to 10 uM irradiated at 420 nm for 5 mins measured after 2 hrs by H2DCF-DA dye-based FACS analysis; assay type: functional, cell-based
[7] = Dark toxicity against human SUM159 cells after 72 hrs by MTT assay; assay type: cell-based, SUM-159-PT
[8] = Induction of cell damage in HMLE-shGFP cells assessed as membrane blebbing at 5 uM irradiated at 420 nm for 5 mins measured after 2 to 3 hrs by confocal microscopic method; assay type: cell-based; settings: human
[9] = tested on: HCT-116; assay: Photocytotoxicity against human HCT116 cells assessed as growth inhibition irradiated at 350 nm at 4, 24, 48 hrs post compound addition for 5 mins measured after 72 hrs by MTT assay; assay type: functional, cell-based; settings: HCT-116, light or radiation study
[10] = Drug uptake in cytoplasm of HMLE-shGFP cells at 5 uM irradiated at 420 nm for 5 mins measured after 2 to 3 hrs by confocal microscopic method; assay type: ADME, subcellular; settings: human
[11] = tested on: NCI-H460; assay: Photocytotoxicity against human H460 cells assessed as growth inhibition irradiated at 420 nm at 4, 24, 48 hrs post compound addition for 5 mins measured after 72 hrs by MTT assay; assay type: functional, cell-based; settings: NCI-H460, light or radiation study
[12] = tested on: HMLE; assay: Anticlonogenic activity against HMLE-shEcad cells at 0.5 to 1 uM irradiated at 350 nm at 4 hrs post compound addition for 5 mins for 5 mins measured after 24 hrs by crystal violet staining-based assay; assay type: functional, cell-based; settings: Homo sapiens
[13] = tested on: MCF7; assay: Cell cycle arrest in human MCF7 cells in presence of irradiation; assay type: functional, cell-based
[14] = tested on: HMLE; assay: Cell cycle arrest in HMLE-shEcad cells assessed as accumulation at S phase at 1 to 10 uM irradiated at 420 nm at 4 hrs post compound addition for 5 mins measured after 24 to 48 hrs by propidium iodide staining-based flow cytometric method; assay type: functional; settings: Homo sapiens
[15] = Cell cycle arrest in HMLE-shGFP cells assessed as accumulation at G2/M phase at 1 to 10 uM irradiated at 420 nm at 4 hrs post compound addition for 5 mins measured after 24 to 48 hrs by propidium iodide staining-based flow cytometric method; settings: human
[16] = Dark toxicity against human MCF7 cells after 72 hrs by MTT assay; assay type: cell-based
[17] = Dark toxicity against human HCT116 cells after 72 hrs by MTT assay; assay type: cell-based, HCT-116
[18] = Cell cycle arrest in HMLE-shEcad cells assessed as delay in G1/S phase at 1 to 10 uM after 24 to 48 hrs in absence of irradiation by propidium iodide staining-based flow cytometric method; settings: human
[19] = Dark toxicity against HMLE-shGFP cells after 72 hrs by MTT assay; assay type: cell-based; settings: human
[20] = Drug uptake in plasma membranes of HMLE-shGFP cells at 5 uM irradiated at 420 nm for 5 mins measured after 2 to 3 hrs by confocal microscopic method; assay type: ADME, cell membranes, Plasma membrane; settings: human
[21] = tested on: NCI-H460; assay: Photocytotoxicity against human H460 cells assessed as growth inhibition irradiated at 350 nm at 4, 24, 48 hrs post compound addition for 5 mins measured after 72 hrs by MTT assay; assay type: functional, cell-based; settings: NCI-H460, light or radiation study
[22] = Photocytotoxicity against HMLE-shEcad cells assessed as growth inhibition irradiated at 420 nm at 4, 24, 48 hrs post compound addition for 5 mins measured after 72 hrs by MTT assay; assay type: functional, cell-based; settings: Homo sapiens, light or radiation study
[23] = tested on: HCT-116; assay: Photocytotoxicity against human HCT116 cells assessed as growth inhibition irradiated at 420 nm at 4, 24, 48 hrs post compound addition for 5 mins measured after 72 hrs by MTT assay; assay type: functional, cell-based; settings: HCT-116, light or radiation study
[24] = Cytotoxicity against HMLE-shGFP cells at 10 uM irradiated at 420 nm at 4 hrs post compound addition for 5 mins measured after 48 hrs by propidium iodide staining-based flow cytometric method; assay type: cell-based; settings: human
[25] = tested on: HMLE; assay: Cell cycle arrest in HMLE-shEcad cells assessed as accumulation at G2/M phase at 1 to 10 uM irradiated at 420 nm at 4 hrs post compound addition for 5 mins measured after 24 to 48 hrs by propidium iodide staining-based flow cytometric method; assay type: functional; settings: Homo sapiens
[26] = Photocytotoxicity against HMLE-shGFP cells assessed as growth inhibition irradiated at 420 nm at 4, 24, 48 hrs post compound addition for 5 mins measured after 72 hrs by MTT assay; assay type: cell-based; settings: Homo sapiens, light or radiation study
[27] = Photocytotoxicity against HMLE-shGFP cells assessed as growth inhibition irradiated at 350 nm at 4, 24, 48 hrs post compound addition for 5 mins measured after 72 hrs by MTT assay; assay type: cell-based; settings: Homo sapiens, light or radiation study
[28] = tested on: SUM-159-PT; assay: Cell cycle arrest in human SUM159 cells in presence of irradiation; assay type: functional, cell-based
[29] = tested on: SUM-159-PT; assay: Photocytotoxicity against human SUM159 cells assessed as growth inhibition irradiated at 420 nm at 4, 24, 48 hrs post compound addition for 5 mins measured after 72 hrs by MTT assay; assay type: functional, cell-based; settings: light or radiation study
[30] = Induction of cell damage in HMLE-shGFP cells assessed as cell swelling at 5 uM irradiated at 420 nm for 5 mins measured after 2 to 3 hrs by confocal microscopic method; assay type: cell-based; settings: human
[31] = Drug uptake in nucleus of HMLE-shGFP cells at 5 uM irradiated at 420 nm for 5 mins measured after 2 to 3 hrs by confocal microscopic method; assay type: ADME, subcellular; settings: human
[32] = Photocytotoxicity against HMLE-shEcad cells assessed as growth inhibition irradiated at 350 nm at 4, 24, 48 hrs post compound addition for 5 mins measured after 72 hrs by MTT assay; assay type: functional, cell-based; settings: Homo sapiens, light or radiation study
[33] = Drug uptake in nucleus of HMLE-shEcad cells at 10 uM in absence of irradiation measured after 2 to 3 hrs by confocal microscopic method; assay type: ADME, subcellular; settings: human
[34] = Dark toxicity against human H460 cells after 72 hrs by MTT assay; assay type: cell-based, NCI-H460
[35] = Induction of reactive oxygen species generation in HMLE-shGFP cells at 1 to 10 uM irradiated at 420 nm for 5 mins measured after 2 hrs by H2DCF-DA dye-based FACS analysis relative to non-irradiated cells; assay type: cell-based; settings: human
[36] = Induction of cell damage in HMLE-shGFP cells assessed as degradation of internal structure at 5 uM irradiated at 420 nm for 5 mins measured after 2 to 3 hrs by confocal microscopic method; assay type: cell-based; settings: human
[37] = tested on: MCF7; assay: Photocytotoxicity against human MCF7 cells assessed as growth inhibition irradiated at 350 nm at 4, 24, 48 hrs post compound addition for 5 mins measured after 72 hrs by MTT assay; assay type: functional, cell-based; settings: MCF7, light or radiation study
[38] = Decrease in reactive oxygen species generation in HMLE-shEcad cells at 1 uM in absence of irradiation measured after 2 hrs by H2DCF-DA dye-based FACS analysis; assay type: ADME, cell-based; settings: human
[39] = Dark toxicity against HMLE-shEcad cells after 72 hrs by MTT assay; assay type: cell-based; settings: human
[40] = Drug uptake in cytoplasm of HMLE-shEcad cells at 10 uM in absence of irradiation measured after 2 to 3 hrs by confocal microscopic method; assay type: ADME, subcellular; settings: human

With `Oc1ccc2cc3ccccc3cc2c1` the IC50 [1] was 1 µM, the Activity [2] was “Active” and the Activity [3] was “Active”. For the same compound, the Drug uptake [4] was “Active”, the Activity [5] was “Toxic” and the Activity [6] was “Active”. For the same compound, the IC50 at 72 h [7] was 18 µM, the Activity [8] was “Toxic” and the IC50 [9] was 9 µM. The Drug uptake [10] was “Active”, the IC50 [11] was 2 µM and the Activity [12] was “Active”. The Activity [13] was “inactive”, the Activity [14] was “Active” and the Activity [15] was “Toxic”. For the same compound, the IC50 at 72 h [16] was 28 µM, the IC50 at 72 h [17] was 27 µM and the Activity [18] was “Toxic”. The IC50 at 72 h [19] was 27 µM, the Drug uptake [20] was “Active” and the IC50 [21] was 12 µM. For the same compound, the IC50 [22] was 1 µM, the IC50 [23] was 2 µM and the Activity [24] was “Toxic”. For the same compound, the Activity [25] was “Active”, the IC50 [26] was 2 µM and the IC50 [27] was 2 µM. For the same compound, the Activity [28] was “inactive”, the IC50 [29] was 2 µM and the Activity [30] was “Toxic”. For the same compound, the Drug uptake [31] was “Not Active”, the IC50 [32] was 2 µM and the Drug uptake [33] was “Not Active”. The IC50 at 72 h [34] was 23 µM, the “fold change (FC)” value [35] was 2 and the Activity [36] was “Toxic”. For the same compound, the IC50 [37] was 2 µM, the Activity [38] was “Toxic” and the IC50 at 72 h [39] was 25 µM. For the same compound, the Drug uptake [40] was “Active”.
